“Also recorded” adds a separate entry of the source.

Consider one substance from patent publication US9493507B2, “Glutathione-elevating compositions and uses thereof” (Oneday— Biotech And Pharma Ltd., priority 2012, dated 2016).

For this test, the system named is murine erythrocytes. In words: Effect of DY-65 on GSH, GSSG and GSH:GSSG ratio in murine erythrocytes exposed to hydrogen peroxide. It counts as cell-based, mice. Particulars: DY-65 5 μM. The procedure: The in vitro efficacy of peptide DY-65 in suppressing the decrease in the ratio of GSH to GSSG in murine erythrocytes exposed to hydrogen peroxide was tested.
Murine erythrocytes (“Cells”) were prepared by washing freshly harvested whole blood from mice three times in PBS. Cells were resuspended in DMEM at a concentration of 10^6 per mL. All study conditions were evaluated in triplicate.
Hydrogen peroxide (200 μM) was utilized to induce redox stress in murine erythrocytes (“Cells”). Prior to exposure to hydrogen peroxide, cells were randomly allocated to the following experimental groups:
1. Sham (no exposure to hydrogen peroxide; no drug) • a. 2.5 h final incubation
2. Vehicle control (hydrogen peroxide; no drug) • a. 1.0 h final incubation • b. 1.5 h final incubation • c. 2.0 h final incubation • d. 2.5 h final incubation
3. DY-65 (5 μM)+hydrogen peroxide • a. 1.0 h final incubation • b. 1.5 h final incubation • c. 2.0 h final incubation • d. 2.5 h final incubation
Cells at a concentration of 10^6 per mL were incubated with vehicle DMEM (Groups 1 or 2) or peptide DY-65 (Group 3) for 3 hours at 37° C. Thereafter, cells were washed three times with DMEM and resuspended in vehicle DMEM (Group 1) or hydrogen peroxide in DMEM (Groups 2-3) for 1 hour at 37° C.
Thereafter, cells were washed three times with DMEM and resuspended in DMEM at 37° C., 10^6 per mL, with peptide DY-65 (Group 3) or without peptide DY-65 (Groups 1-2). The duration of final incubation was 1.0, 1.5, 2.0, or 2.5 h. Cells were then pelleted, lysed, and processed for measurement of GSH and GSSG using a Glutathione Assay kit sold by Cayman (Chemical Item Number 703002). Data were expressed as micromoles of GSH or GSSG per 1 million erythrocytes.
Given 9 conditions, 3 replicates per condition, and 2 endpoints (GSH and GSSG), a total of 54 wells were incubated.
Data analysis. All values in the figure and text below were expressed as mean±standard deviation (SD) and standard error (SE) of n observations. The results were analyzed by one-way ANOVA followed by Tukey's post-hoc test for multiple comparisons. […]

Take “N-acetyl-Cys-Lys-Met-Cys-NH2 (Ac-CKMC-NH2; cysteine pairing not given here) [DY-65]”: under “hydrogen peroxide 200 μM 1 h, 1 h final incubation, FIG. 2C”, the “effect on GSH concentration after hydrogen peroxide” value is given as “completely protective; also recorded: increase GSH”. Further, the “effect on GSSG elevation in response to hydrogen peroxide” value (hydrogen peroxide 200 μM 1 h, final incubation 1.0-2.5 h, FIG. 2D) is listed as “uniformly effective in suppressing the elevation of GSSG; also recorded: decrease GSSG”. The “ratio of GSH to GSSG” value (hydrogen peroxide 200 μM, earliest time point, 1 h post exposure, FIG. 2E) is recorded as “clear benefit”.
